Source: patent publication US20070128179A1 (priority 2005, published 2007)
Converted amounts (≈) assume the structure as drawn. Like-named read-outs stand apart in the source and are kept apart here. No end group written: not given here.

Legend:
Pseudomonas aeruginosa = format: cell-based
Staphylococcus aureus = format: cell-based
Proteus mirabilis = format: cell-based
Enterobacter aerogenes = format: cell-based
Escherichia coli = format: cell-based
Proteus vulgaris = format: cell-based
[1] = test system: B. pseudomallei (strain KHW); settings: 24 h
[2] = test system: B. pseudomallei (strain KHW); experiment: microbe, parasite or virus in culture; settings: Burkholderia pseudomallei, 24 h, read-out: MIC (breaking point)
THP-1 cells = format: cell-based, Human
[3] = test system: severe meloidosis patients; settings: human, in vivo; cited from earlier work
[4] = test system: B. pseudomallei (strain TES); experiment: microbe, parasite or virus in culture; format: cell-based, Burkholderia pseudomallei; settings: 24 h; for MIC: Burkholderia pseudomallei, read-out: MIC (breaking point)
[5] = test system: THP-1 cells (Human macrophage)
23 tested strains = settings: cited from earlier work
Burkholderia cepacia = settings: 50 μg/mL; cited from earlier work

## Penicillin
Pseudomonas aeruginosa
  Size of inhibition zone, Pa (−): 16.6 ± 0.89 mm
Staphylococcus aureus
  Size of inhibition zone, Sa (+): 17.4 ± 0.89 mm
Proteus mirabilis
  Size of inhibition zone, Pm (−): 27.8 ± 1.10 mm
Enterobacter aerogenes
  Size of inhibition zone, Ea (−): 18.3 ± 0.85 mm
Escherichia coli
  Size of inhibition zone, Ec (−): 15.2 ± 0.84 mm
Proteus vulgaris
  Size of inhibition zone, Pv (−): 16.7 ± 0.98 mm

## CC(C)(O/N=C(\C(=O)N[C@@H]1C(=O)N2C(C(=O)[O-])=C(C[n+]3ccccc3)CS[C@H]12)c1csc(N)n1)C(=O)O [Ceftazidime]
[1]; 0.03125 mg/mL
  optical density (560 nm) of bacterial growth, strain KHW: 0.44
  percentage in parentheses (susceptibility), strain KHW: (22%)
[1]; 0.0625 mg/mL
  optical density (560 nm) of bacterial growth, strain KHW: 0.24
  percentage in parentheses (susceptibility), strain KHW: (24%)
[1]; 0.125 mg/mL
  optical density (560 nm) of bacterial growth, strain KHW: 0.04
  percentage in parentheses (susceptibility), strain KHW: (62%)
[1]; 0.25 mg/mL
  optical density (560 nm) of bacterial growth, strain KHW: 0.05
  percentage in parentheses (susceptibility), strain KHW: (61%)
[1]; 0.5 mg/mL
  optical density (560 nm) of bacterial growth, strain KHW: 0.08
  percentage in parentheses (susceptibility), strain KHW: (58%)
[2]
  MIC: 125 µg/mL (≈ 229 µM)
THP-1 cells
  gene expression: majority of the genes were up regulated
[3]
  mortality: 37%
[4]; 0.03125 mg/mL
  optical density (560 nm) of bacterial growth, strain TES: 0.49
  percentage in parentheses (susceptibility), strain TES: (33%)
[4]; 0.0625 mg/mL
  optical density (560 nm) of bacterial growth, strain TES: 0.35
  percentage in parentheses (susceptibility), strain TES: (47%)
[4]; 0.125 mg/mL
  optical density (560 nm) of bacterial growth, strain TES: 0.09
[4]; 0.25 mg/mL
  optical density (560 nm) of bacterial growth, strain TES: 0.03
  percentage in parentheses (susceptibility), strain TES: (86%)
[4]; 0.5 mg/mL
  optical density (560 nm) of bacterial growth, strain TES: 0.01
  percentage in parentheses (susceptibility), strain TES: (88%)
[4]
  MIC: 125 µg/mL (≈ 229 µM)

## Triton X-100
Human red blood cells
  hemolytic activity: 100%
[5]
  cell death: 90%

## [H]/N=C(/N)N[C@H]1[C@H](O)[C@@H](O)[C@H](O[C@@H]2O[C@@H](C)[C@](O)(C=O)[C@H]2O[C@@H]2O[C@@H](CO)[C@H](O)[C@@H](O)[C@@H]2NC)[C@@H](N/C(N)=N\[H])[C@@H]1O [Streptomycin]
Pseudomonas aeruginosa
  Size of inhibition zone, Pa (−): 16.5 ± 0.50 mm
Staphylococcus aureus
  Size of inhibition zone, Sa (+): 30.3 ± 0.77 mm
Proteus mirabilis
  Size of inhibition zone, Pm (−): 27.8 ± 1.09 mm
Enterobacter aerogenes
  Size of inhibition zone, Ea (−): 15.7 ± 0.44 mm
Escherichia coli
  Size of inhibition zone, Ec (−): 29.4 ± 0.89 mm
Proteus vulgaris
  Size of inhibition zone, Pv (−): 18.2 ± 0.83 mm

## O=C(N[C@H](CO)[C@H](O)c1ccc([N+](=O)[O-])cc1)C(Cl)Cl [Chloramphenicol]
Pseudomonas aeruginosa
  Size of inhibition zone, Pa (−): 25 ± 0.70 mm
[1]; 0.03125 mg/mL
  optical density (560 nm) of bacterial growth, strain KHW: 0.51
  percentage in parentheses (susceptibility), strain KHW: (1%)
[1]; 0.0625 mg/mL
  optical density (560 nm) of bacterial growth, strain KHW: 0.42
  percentage in parentheses (susceptibility), strain KHW: (10%)
[1]; 0.125 mg/mL
  optical density (560 nm) of bacterial growth, strain KHW: 0.07
  percentage in parentheses (susceptibility), strain KHW: (60%)
[1]; 0.25 mg/mL
  optical density (560 nm) of bacterial growth, strain KHW: 0.03
  percentage in parentheses (susceptibility), strain KHW: (64%)
[1]; 0.5 mg/mL
  optical density (560 nm) of bacterial growth, strain KHW: 0.01
  percentage in parentheses (susceptibility), strain KHW: (68%)
Staphylococcus aureus
  Size of inhibition zone, Sa (+): 35.1 ± 1.26 mm
Proteus mirabilis
  Size of inhibition zone, Pm (−): 33 ± 2.34 mm
Enterobacter aerogenes
  Size of inhibition zone, Ea (−): 27.8 ± 1.09 mm
Escherichia coli
  Size of inhibition zone, Ec (−): 31.8 ± 1.64 mm
[2]
  MIC: 125 µg/mL (≈ 387 µM)
Proteus vulgaris
  Size of inhibition zone, Pv (−): 24.6 ± 0.86 mm
[3]
  mortality: 74%
[4]; 0.03125 mg/mL
  optical density (560 nm) of bacterial growth, strain TES: 0.37
  percentage in parentheses (susceptibility), strain TES: (38%)
[4]; 0.0625 mg/mL
  optical density (560 nm) of bacterial growth, strain TES: 0.34
  percentage in parentheses (susceptibility), strain TES: (41%)
[4]; 0.125 mg/mL
  optical density (560 nm) of bacterial growth, strain TES: 0.07
[4]; 0.25 mg/mL
  optical density (560 nm) of bacterial growth, strain TES: 0.04
  percentage in parentheses (susceptibility), strain TES: (73%)
[4]; 0.5 mg/mL
  optical density (560 nm) of bacterial growth, strain TES: 0.026
  percentage in parentheses (susceptibility), strain TES: (74%)
[4]
  MIC: 125 µg/mL (≈ 387 µM)

## hBD-3 (GIINTLQKYYCRVRGGRCAVLSCLPKEEQIGKCSTRGRKCCRRKK; ends and bridges not checked; cysteine pairing not given here; UniProt P81534 23-67, looked up)
23 tested strains
  MBCs: > 100 µg/mL
Burkholderia cepacia
  effect: did not show any effect

## CC[C@H](C)[C@H](NC(=O)CN)C(=O)NCC(=O)N[C@@H](C)C(=O)N[C@H](C(=O)N[C@@H](CC(C)C)C(=O)N[C@@H](CCCCN)C(=O)N[C@H](C(=O)N[C@@H](CC(C)C)C(=O)N[C@H](C(=O)N[C@H](C(=O)NCC(=O)N[C@@H](CC(C)C)C(=O)N1CCC[C@H]1C(=O)N[C@@H](C)C(=O)N[C@@H](CC(C)C)C(=O)N[C@H](C(=O)N[C@@H](CO)C(=O)N[C@@H](Cc1c[nH]c2ccccc12)C(=O)N[C@H](C(=O)N[C@@H](CCCCN)C(=O)N[C@@H](CCCNC(=N)N)C(=O)N[C@@H](CCCCN)C(=O)N[C@@H](CCCNC(=N)N)C(=O)N[C@@H](CCC(N)=O)C(=O)N[C@@H](CCC(N)=O)C(N)=O)[C@@H](C)CC)[C@@H](C)CC)[C@@H](C)O)[C@@H](C)O)C(C)C)C(C)C [melittin]
[1]
  MIC (breaking point): 250 µg/mL (≈ 87.8 µM)
